For orientation: IC50 means the concentration that gives 50% inhibition.

The record followed here is US9663508B2, “Biaryl acyl-sulfonamide compounds as sodium channel inhibitors” (AMGEN INC., priority 2013, dated 2017).

Each structure is given as a SMILES string. Where two headings read alike, the source gives them in different places.

The target in series [1] is human Nav 1.5 (Homo sapiens (Human), UniProt Q14524). The series can be described thus: Nav 1.5 IonWorks Quattro (IWQ) in vitro assay. Format: cell-based.
Procedure: Nav 1.7 or Nav 1.5 Ion Works Quattro (IWQ) In Vitro Assay
HEK 293 Cells stably transfected with either human Nay 1.7 or human Nay 1.5 were recorded in population patch-clamp mode with the IonWorks® Quattro automated electrophysiology system in accordance with the manufacturer's specifications (Molecular Devices, LLC, Sunnyvale, Calif.). Sodium channel currents were measured in response to a train of depolarizations that induced successively greater inactivation.
Cells were held at −110 mV for three seconds (Nav 1.7) or half a second (Nav 1.5) from a holding voltage of −15 mV, then put through a series of 26 pulses of 150 msec duration to −20 mV at a frequency of 5 Hz. Cells were then left unclamped for a period of 3 to 8 minutes while a single concentration of test compound was added. Cells were then reclamped and put through the same voltage protocol. Current at the end of the 26th pulse to −20 mV was subtracted from the peak current evoked by the 26th pulse to −20 mV to correct for leak current. Percent block was calculated for each concentration in duplicate, and IC50 curves were fitted to percent block as a function of concentration.
Series [2] addresses human Nav1.7 (Homo sapiens (Human), UniProt Q15858). Description: Nav 1.7 in vitro PatchXpress (PX) assay. Format: cell-based.
The mark [3] stands for this setting: in-vitro Nav 1.5 IWQ data, read-out: NAV 1.5 IWQ (IC50).

human Nav 1.5, sequence (Q14524 whole entry): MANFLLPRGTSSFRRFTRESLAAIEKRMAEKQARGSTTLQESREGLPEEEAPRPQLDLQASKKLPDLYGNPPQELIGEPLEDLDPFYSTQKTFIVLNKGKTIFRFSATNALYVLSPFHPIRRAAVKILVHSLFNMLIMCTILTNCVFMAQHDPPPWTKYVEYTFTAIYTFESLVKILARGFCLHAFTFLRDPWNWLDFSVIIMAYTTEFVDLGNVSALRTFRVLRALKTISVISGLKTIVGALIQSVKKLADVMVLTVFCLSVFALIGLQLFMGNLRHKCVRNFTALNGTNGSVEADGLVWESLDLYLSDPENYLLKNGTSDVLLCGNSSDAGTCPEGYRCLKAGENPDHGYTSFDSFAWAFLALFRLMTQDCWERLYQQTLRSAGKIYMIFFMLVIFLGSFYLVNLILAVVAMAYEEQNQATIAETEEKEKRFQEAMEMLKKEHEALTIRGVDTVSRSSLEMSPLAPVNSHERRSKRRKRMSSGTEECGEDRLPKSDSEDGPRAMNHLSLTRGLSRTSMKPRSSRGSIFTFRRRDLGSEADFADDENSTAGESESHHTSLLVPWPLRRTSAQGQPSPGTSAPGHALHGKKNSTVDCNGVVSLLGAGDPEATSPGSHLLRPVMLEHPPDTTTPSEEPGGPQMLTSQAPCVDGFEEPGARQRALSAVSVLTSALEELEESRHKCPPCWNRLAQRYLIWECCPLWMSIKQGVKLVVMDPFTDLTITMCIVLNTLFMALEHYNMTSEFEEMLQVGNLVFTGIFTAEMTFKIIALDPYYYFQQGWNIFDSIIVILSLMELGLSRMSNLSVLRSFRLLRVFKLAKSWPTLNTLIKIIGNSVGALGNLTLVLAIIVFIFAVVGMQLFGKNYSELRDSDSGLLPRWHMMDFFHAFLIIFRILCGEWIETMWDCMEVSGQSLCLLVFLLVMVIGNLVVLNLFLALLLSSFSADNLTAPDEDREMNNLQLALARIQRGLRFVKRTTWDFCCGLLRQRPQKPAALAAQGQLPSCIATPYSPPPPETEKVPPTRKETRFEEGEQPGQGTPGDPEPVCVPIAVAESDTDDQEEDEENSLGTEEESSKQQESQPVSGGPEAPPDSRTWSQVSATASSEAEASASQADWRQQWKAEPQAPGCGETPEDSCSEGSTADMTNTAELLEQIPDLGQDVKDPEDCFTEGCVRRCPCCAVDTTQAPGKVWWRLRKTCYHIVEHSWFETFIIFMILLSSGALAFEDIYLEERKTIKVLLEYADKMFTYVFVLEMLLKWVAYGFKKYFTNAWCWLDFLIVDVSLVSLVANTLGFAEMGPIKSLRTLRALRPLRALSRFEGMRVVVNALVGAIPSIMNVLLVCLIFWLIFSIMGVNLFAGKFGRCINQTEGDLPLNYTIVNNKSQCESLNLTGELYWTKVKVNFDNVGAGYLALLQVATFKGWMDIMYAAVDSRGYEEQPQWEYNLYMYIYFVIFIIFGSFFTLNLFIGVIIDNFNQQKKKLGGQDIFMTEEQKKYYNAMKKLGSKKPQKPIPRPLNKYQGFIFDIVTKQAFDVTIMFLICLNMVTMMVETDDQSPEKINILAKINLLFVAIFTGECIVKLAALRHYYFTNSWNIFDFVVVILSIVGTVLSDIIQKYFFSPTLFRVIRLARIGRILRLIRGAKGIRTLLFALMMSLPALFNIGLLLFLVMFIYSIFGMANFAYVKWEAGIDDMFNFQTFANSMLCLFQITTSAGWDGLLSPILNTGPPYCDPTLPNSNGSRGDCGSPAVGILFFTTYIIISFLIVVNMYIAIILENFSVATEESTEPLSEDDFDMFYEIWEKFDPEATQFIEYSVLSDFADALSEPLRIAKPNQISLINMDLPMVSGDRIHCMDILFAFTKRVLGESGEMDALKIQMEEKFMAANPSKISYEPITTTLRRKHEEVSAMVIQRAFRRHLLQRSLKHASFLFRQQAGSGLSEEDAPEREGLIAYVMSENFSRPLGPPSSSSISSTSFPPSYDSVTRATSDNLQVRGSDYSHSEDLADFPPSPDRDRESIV
human Nav1.7, sequence (Q15858 whole entry): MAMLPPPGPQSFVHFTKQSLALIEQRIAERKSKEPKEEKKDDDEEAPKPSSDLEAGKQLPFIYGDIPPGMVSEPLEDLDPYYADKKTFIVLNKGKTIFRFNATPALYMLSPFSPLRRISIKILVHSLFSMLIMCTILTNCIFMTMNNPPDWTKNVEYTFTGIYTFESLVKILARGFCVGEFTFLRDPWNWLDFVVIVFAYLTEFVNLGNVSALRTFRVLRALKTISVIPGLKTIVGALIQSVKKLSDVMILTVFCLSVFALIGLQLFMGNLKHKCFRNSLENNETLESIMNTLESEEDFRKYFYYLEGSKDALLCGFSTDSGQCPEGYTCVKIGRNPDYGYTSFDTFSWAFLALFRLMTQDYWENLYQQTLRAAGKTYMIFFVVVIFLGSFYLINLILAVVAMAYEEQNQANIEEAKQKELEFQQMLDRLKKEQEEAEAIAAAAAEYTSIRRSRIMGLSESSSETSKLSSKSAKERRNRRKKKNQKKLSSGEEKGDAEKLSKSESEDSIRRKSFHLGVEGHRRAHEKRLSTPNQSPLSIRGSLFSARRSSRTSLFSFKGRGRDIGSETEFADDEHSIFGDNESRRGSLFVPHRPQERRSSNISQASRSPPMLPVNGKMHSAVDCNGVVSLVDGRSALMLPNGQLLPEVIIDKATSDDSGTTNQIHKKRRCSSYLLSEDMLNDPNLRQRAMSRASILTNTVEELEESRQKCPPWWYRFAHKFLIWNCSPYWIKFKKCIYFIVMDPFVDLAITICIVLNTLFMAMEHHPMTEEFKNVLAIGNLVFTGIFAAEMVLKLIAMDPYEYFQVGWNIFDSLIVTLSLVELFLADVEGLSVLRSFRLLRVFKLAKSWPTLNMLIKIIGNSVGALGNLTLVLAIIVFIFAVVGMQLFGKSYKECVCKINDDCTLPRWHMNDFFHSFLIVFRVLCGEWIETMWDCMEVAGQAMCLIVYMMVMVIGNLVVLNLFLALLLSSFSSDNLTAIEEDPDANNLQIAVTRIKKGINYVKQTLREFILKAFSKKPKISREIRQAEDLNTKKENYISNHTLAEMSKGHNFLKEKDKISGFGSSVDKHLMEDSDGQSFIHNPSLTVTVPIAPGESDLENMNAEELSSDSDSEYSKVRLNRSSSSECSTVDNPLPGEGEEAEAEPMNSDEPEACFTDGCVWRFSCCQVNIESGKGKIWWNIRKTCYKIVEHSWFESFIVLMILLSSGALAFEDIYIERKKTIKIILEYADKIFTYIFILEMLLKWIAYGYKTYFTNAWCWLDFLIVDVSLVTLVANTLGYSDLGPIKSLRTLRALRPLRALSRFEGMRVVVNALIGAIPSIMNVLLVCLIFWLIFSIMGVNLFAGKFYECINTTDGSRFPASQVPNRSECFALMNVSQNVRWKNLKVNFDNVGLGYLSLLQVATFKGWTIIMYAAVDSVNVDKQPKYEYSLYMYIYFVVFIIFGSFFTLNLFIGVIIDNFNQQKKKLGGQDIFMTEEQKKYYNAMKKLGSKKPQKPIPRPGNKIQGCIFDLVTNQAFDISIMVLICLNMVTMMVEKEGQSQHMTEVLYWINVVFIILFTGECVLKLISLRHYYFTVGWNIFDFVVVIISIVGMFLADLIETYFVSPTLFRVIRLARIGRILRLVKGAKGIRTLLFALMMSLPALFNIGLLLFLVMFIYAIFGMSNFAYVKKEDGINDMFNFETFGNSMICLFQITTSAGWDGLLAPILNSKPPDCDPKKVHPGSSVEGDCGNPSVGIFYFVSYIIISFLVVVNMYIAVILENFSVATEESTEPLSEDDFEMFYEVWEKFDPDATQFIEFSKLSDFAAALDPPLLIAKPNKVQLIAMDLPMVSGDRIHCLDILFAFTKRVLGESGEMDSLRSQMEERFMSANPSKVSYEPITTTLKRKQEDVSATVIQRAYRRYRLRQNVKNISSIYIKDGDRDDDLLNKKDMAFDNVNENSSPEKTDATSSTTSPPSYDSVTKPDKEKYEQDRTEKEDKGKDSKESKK

On to `Cc1cc(C(=O)NS(C)(=O)=O)c(F)cc1-c1cnc(O[C@](C)(c2ccccc2)C(F)(F)F)c(Cl)c1` [Example 587, 4-(5-chloro-6-((1R)-2,2,2-trifluoro-1-methyl-1-phenylethoxy)-3-pyridinyl)-2-fluoro-5-methyl-N-(methylsulfonyl)benzamide, 4-(5-chloro-6-((1S)-2,2,2-trifluoro-1-methyl-1-phenylethoxy)-3-pyridinyl)-2-fluoro-5-methyl-N-(methylsulfonyl)benzamide], for which the IC50 in series [1] (read-out: NAV 1.5 IWQ IC50) was greater than 3000 nM; in series [2] it was 81.5 nM.
On the same counts, the results for `Cc1cc(C(=O)NS(C)(=O)=O)c(F)cc1-c1cnc(Oc2ccc(C)c(F)c2F)c(Cl)c1` [Example 643, 4-(5-chloro-6-(2,3-difluoro-4-methylphenoxy)-3-pyridinyl)-2-fluoro-5-methyl-N-(methylsulfonyl)benzamide] are 5440 nM and 79.2 nM.
For `Cc1cc(C(=O)NS(=O)(=O)c2nccs2)c(F)cc1-c1cnc(Oc2c(C)cc(Cl)cc2Cl)c(Cl)c1` [Example 799, 4-(5-chloro-6-(2,4-dichloro-6-methylphenoxy)-3-pyridinyl)-2-fluoro-5-methyl-N-(1,3-thiazol-2-ylsulfonyl)benzamide], the IC50 in series [1] (setting [3]) was found to be 669 nM; in series [2] (in-vitro Nav 1.7 PX data), 23.1 nM.
In the case of `Cc1cc(C(=O)NS(C)(=O)=O)c(F)cc1-c1cnc(O[C@H](C)c2c(F)cc(F)cc2F)c(Cl)c1` [Example 661, 4-(5-chloro-6-((1R)-1-(2,4,6-trifluorophenyl)ethoxy)-3-pyridinyl)-2-fluoro-5-methyl-N-(methylsulfonyl)benzamide, 4-(5-chloro-6-((1S)-1-(2,4,6-trifluorophenyl)ethoxy)-3-pyridinyl)-2-fluoro-5-methyl-N-(methylsulfonyl)benzamide], the IC50 in series [1] (read-out: NAV 1.5 IWQ IC50) is greater than 10000 nM; in series [2] it was 76.9 nM.
With `CC[C@H](Cc1ccccc1)Oc1ncc(-c2cc(F)c(C(=O)NS(C)(=O)=O)cc2Cl)cc1Cl` [Example 593, 4-(6-(((1R)-1-benzylpropyl)oxy)-5-chloro-3-pyridinyl)-5-chloro-2-fluoro-N-(methylsulfonyl)benzamide, 4-(6-(((1S)-1-benzylpropyl)oxy)-5-chloro-3-pyridinyl)-5-chloro-2-fluoro-N-(methylsulfonyl)benzamide], the IC50 in series [1] (read-out: NAV 1.5 IWQ IC50) was greater than 3000 nM; in series [2], 97.4 nM.
`COc1cc(C(=O)NS(C)(=O)=O)c(F)cc1-c1cnc(O[C@H](C)c2ccccc2)c(Cl)c1` [Example 696, 4-(5-chloro-6-((1R)-1-phenylethoxy)-3-pyridinyl)-2-fluoro-5-methoxy-N-(methylsulfonyl)benzamide, 4-(5-chloro-6-((1S)-1-phenylethoxy)-3-pyridinyl)-2-fluoro-5-methoxy-N-(methylsulfonyl)benzamide]: the IC50 is greater than 3000 nM in series [1] (read-out: NAV 1.5 IWQ IC50) and 93 nM in series [2].
Take `COc1cc(C(=O)NS(C)(=O)=O)ccc1-c1cnc(OCc2ccccc2Cl)c(Cl)c1` [Example 577, 4-(5-chloro-6-((2-chlorobenzyl)oxy)-3-pyridinyl)-3-methoxy-N-(methylsulfonyl)benzamide]: the figures for the IC50 in series [1] (read-out: NAV 1.5 IWQ IC50) and in series [2] were greater than 3000 nM and 95 nM, respectively.
In the case of `Cc1cc(C(=O)NS(C)(=O)=O)c(F)cc1-c1cnc(Oc2c(Cl)ccc(C)c2F)c(Cl)c1` [Example 670, 4-(5-chloro-6-(6-chloro-2-fluoro-3-methylphenoxy)-3-pyridinyl)-2-fluoro-5-methyl-N-(methylsulfonyl)benzamide], the half-inhibitory concentration (IC50) in series [1] (read-out: NAV 1.5 IWQ IC50) was greater than 10000 nM; in series [2], 83.6 nM.
As to `COc1cc(C(=O)NS(C)(=O)=O)c(F)cc1-c1cnc(OCc2nc3ccccc3s2)c(Cl)c1` [Example 709, 4-(6-(1,3-benzothiazol-2-ylmethoxy)-5-chloro-3-pyridinyl)-2-fluoro-5-methoxy-N-(methylsulfonyl)benzamide], the IC50 in series [1] (setting [3]) was greater than 3000 nM; in series [2] (in-vitro Nav 1.7 PX data) it was 34.9 nM.
